{"source": "patent US20060234297A1", "about": "“Screening method” (priority 2003, published 2006)", "origin": "cited, not measured here", "key": {"[1]": {"tested_on": "mouse macrophages stimulated with phorbol ester or tumor necrosis factor (TNF-α)"}, "[2]": {"tested_on": "progression of arteriosclerosis", "details": "clinical study"}}}
{"compound": "CCOC(=O)C1=C(C)NC(C)=C(C(=O)OCC)C1c1ccccc1/C=C/C(=O)OC(C)(C)C", "note": "[lacidipine]", "values": [{"measurement": "MMP-9 secretion and production", "setting": "[1]", "value": "suppressed MMP-9 secretion and production"}, {"measurement": "effect on the progression of arteriosclerosis", "setting": "[2]", "value": "suppressive effect on the progression of arteriosclerosis"}]}
